The supplement of paper PMC10883282

Tests used:
Assay in all cases: relative viability vs DMSO control (72 h) (fraction); higher = more viable cells
G401 = system: G401
Method in brief: (§1)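 A 5 µM positive control and 0.1% DMSO vehicle ran alongside sarcoma cell lines seeded in 384-well plates to reach 80–90% confluence. Serially diluted compound, 2.5 µl from source plates of 10 mM to 0.0002 mM, was added after 24 h, and the plates were held 72 h at 37 °C, 5% CO2. Relative viability was worked out from ATPLite readings as percent growth averaged over up to triplicate wells. The values were rescaled so that 1 is full and 0 is none.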

KHOS-240S = system: KHOS-240S
Method in brief: as §1

SW1353 = system: SW1353
Method in brief: as §1

SYO-1 = system: SYO-1
Method in brief: as §1

SW982 = system: SW982
Method in brief: as §1

HT1080 = system: HT1080
Method in brief: as §1

KHOS-NP = system: KHOS-NP
Method in brief: as §1

SW872 = system: SW872
Method in brief: as §1

SW684 = system: SW684
Method in brief: as §1

RD-ES = system: RD-ES
Method in brief: as §1

A204 = system: A204
Method in brief: as §1

SK-ES-1 = system: SK-ES-1
Method in brief: as §1

CC(C)NC[C@@H](C(=O)N1CCN(c2ncnc3c2[C@H](C)C[C@H]3O)CC1)c1ccc(Cl)cc1 [Ipatasertib]
Details	relative viability
A204, 0.00017 µM	1.06
A204, 0.00051 µM	1.08
A204, 0.00152 µM	1.05
A204, 0.00457 µM	1.05
A204, 0.01372 µM	1.05
A204, 0.04115 µM	0.992
A204, 0.1235 µM	0.953
A204, 0.3704 µM	0.751
A204, 1.111 µM	0.711
A204, 3.333 µM	0.621
A204, 10 µM	0.509
G401, 0.00017 µM	1.03
G401, 0.00051 µM	1.04
G401, 0.00152 µM	1.01
G401, 0.00457 µM	0.956
G401, 0.01372 µM	0.942
G401, 0.04115 µM	0.89
G401, 0.1235 µM	0.863
G401, 0.3704 µM	0.786
G401, 1.111 µM	0.707
G401, 3.333 µM	0.655
G401, 10 µM	0.613
HT1080, 0.00017 µM	1.1
HT1080, 0.00051 µM	1.08
HT1080, 0.00152 µM	1.1
HT1080, 0.00457 µM	1.05
HT1080, 0.01372 µM	1.07
HT1080, 0.04115 µM	1.04
HT1080, 0.1235 µM	1.1
HT1080, 0.3704 µM	1.07
HT1080, 1.111 µM	1.055
HT1080, 3.333 µM	0.997
HT1080, 10 µM	0.994
KHOS-240S, 0.00017 µM	1.06
KHOS-240S, 0.00051 µM	1.04
KHOS-240S, 0.00152 µM	1.05
KHOS-240S, 0.00457 µM	1.05
KHOS-240S, 0.01372 µM	1.06
KHOS-240S, 0.04115 µM	0.991
KHOS-240S, 0.1235 µM	1.01
KHOS-240S, 0.3704 µM	0.938
KHOS-240S, 1.111 µM	0.87
KHOS-240S, 3.333 µM	0.823
KHOS-240S, 10 µM	0.703
KHOS-NP, 0.00017 µM	1.1
KHOS-NP, 0.00051 µM	1.11
KHOS-NP, 0.00152 µM	1.11
KHOS-NP, 0.00457 µM	1.09
KHOS-NP, 0.01372 µM	1.06
KHOS-NP, 0.04115 µM	1.06
KHOS-NP, 0.1235 µM	1.067
KHOS-NP, 0.3704 µM	1.04
KHOS-NP, 1.111 µM	1.04
KHOS-NP, 3.333 µM	0.994
KHOS-NP, 10 µM	0.957
RD-ES, 0.00017 µM	0.9447
RD-ES, 0.00051 µM	0.932
RD-ES, 0.00152 µM	0.954
RD-ES, 0.00457 µM	0.9221
RD-ES, 0.01372 µM	0.925
RD-ES, 0.04115 µM	0.869
RD-ES, 0.1235 µM	0.844
RD-ES, 0.3704 µM	0.7432
RD-ES, 1.111 µM	0.601
RD-ES, 3.333 µM	0.52
RD-ES, 10 µM	0.4354
SK-ES-1, 0.00017 µM	1.03
SK-ES-1, 0.00051 µM	1.04
SK-ES-1, 0.00152 µM	1.01
SK-ES-1, 0.00457 µM	1
SK-ES-1, 0.01372 µM	1.02
SK-ES-1, 0.04115 µM	0.947
SK-ES-1, 0.1235 µM	0.944
SK-ES-1, 0.3704 µM	0.79
SK-ES-1, 1.111 µM	0.683
SK-ES-1, 3.333 µM	0.529
SK-ES-1, 10 µM	0.473
SW684, 0.00017 µM	1.07
SW684, 0.00051 µM	1.11
SW684, 0.00152 µM	1.11
SW684, 0.00457 µM	1.09
SW684, 0.01372 µM	1.09
SW684, 0.04115 µM	1.08
SW684, 0.1235 µM	0.994
SW684, 0.3704 µM	0.855
SW684, 1.111 µM	0.664
SW684, 3.333 µM	0.5598
SW684, 10 µM	0.49
SW872, 0.00017 µM	1.01
SW872, 0.00051 µM	1.04
SW872, 0.00152 µM	1.01
SW872, 0.00457 µM	1.01
SW872, 0.01372 µM	0.922
SW872, 0.04115 µM	0.91
SW872, 0.1235 µM	0.843
SW872, 0.3704 µM	0.712
SW872, 1.111 µM	0.611
SW872, 3.333 µM	0.491
SW872, 10 µM	0.415
SW982, 0.00017 µM	0.991
SW982, 0.00051 µM	0.985
SW982, 0.00152 µM	1.02
SW982, 0.00457 µM	1
SW982, 0.01372 µM	0.945
SW982, 0.04115 µM	0.949
SW982, 0.1235 µM	0.962
SW982, 0.3704 µM	0.881
SW982, 1.111 µM	0.824
SW982, 3.333 µM	0.745
SW982, 10 µM	0.652
SW1353, 0.00017 µM	1.04
SW1353, 0.00051 µM	1.05
SW1353, 0.00152 µM	1.03
SW1353, 0.00457 µM	1.02
SW1353, 0.01372 µM	0.991
SW1353, 0.04115 µM	0.93
SW1353, 0.1235 µM	0.935
SW1353, 0.3704 µM	0.862
SW1353, 1.111 µM	0.864
SW1353, 3.333 µM	0.781
SW1353, 10 µM	0.727
SYO-1, 0.00017 µM	0.95
SYO-1, 0.00051 µM	0.94
SYO-1, 0.00152 µM	0.862
SYO-1, 0.00457 µM	0.821
SYO-1, 0.01372 µM	0.807
SYO-1, 0.04115 µM	0.776
SYO-1, 0.1235 µM	0.719
SYO-1, 0.3704 µM	0.656
SYO-1, 1.111 µM	0.636
SYO-1, 3.333 µM	0.549
SYO-1, 10 µM	0.504

N#CCNC(=O)c1ccc(-c2ccnc(Nc3ccc(N4CCOCC4)cc3)n2)cc1 [Momelotinib]
Details	relative viability
A204, 0.00017 µM	1.03
A204, 0.00051 µM	1.07
A204, 0.00152 µM	1.05
A204, 0.00457 µM	1.05
A204, 0.01372 µM	1.04
A204, 0.04115 µM	1.06
A204, 0.1235 µM	0.993
A204, 0.3704 µM	0.774
A204, 1.111 µM	0.646
A204, 3.333 µM	0.498
A204, 10 µM	0.284
G401, 0.00017 µM	1.01
G401, 0.00051 µM	1.011
G401, 0.00152 µM	1.05
G401, 0.00457 µM	1.06
G401, 0.01372 µM	1.01
G401, 0.04115 µM	0.964
G401, 0.1235 µM	0.975
G401, 0.3704 µM	0.898
G401, 1.111 µM	0.779
G401, 3.333 µM	0.683
G401, 10 µM	0.54
HT1080, 0.00017 µM	1.03
HT1080, 0.00051 µM	1.1
HT1080, 0.00152 µM	1.069
HT1080, 0.00457 µM	1.06
HT1080, 0.01372 µM	1.08
HT1080, 0.04115 µM	1.09
HT1080, 0.1235 µM	1.12
HT1080, 0.3704 µM	1.17
HT1080, 1.111 µM	1.18
HT1080, 3.333 µM	1.25
HT1080, 10 µM	1.21
KHOS-240S, 0.00017 µM	1.05
KHOS-240S, 0.00051 µM	1.03
KHOS-240S, 0.00152 µM	1.08
KHOS-240S, 0.00457 µM	1.05
KHOS-240S, 0.01372 µM	1.08
KHOS-240S, 0.04115 µM	1.03
KHOS-240S, 0.1235 µM	0.992
KHOS-240S, 0.3704 µM	0.92
KHOS-240S, 1.111 µM	0.789
KHOS-240S, 3.333 µM	0.768
KHOS-240S, 10 µM	0.725
KHOS-NP, 0.00017 µM	1.09
KHOS-NP, 0.00051 µM	1.099
KHOS-NP, 0.00152 µM	1.101
KHOS-NP, 0.00457 µM	1.09
KHOS-NP, 0.01372 µM	1.115
KHOS-NP, 0.04115 µM	1.11
KHOS-NP, 0.1235 µM	1.101
KHOS-NP, 0.3704 µM	1.08
KHOS-NP, 1.111 µM	1.01
KHOS-NP, 3.333 µM	1.05
KHOS-NP, 10 µM	0.983
RD-ES, 0.00017 µM	0.9849
RD-ES, 0.00051 µM	0.981
RD-ES, 0.00152 µM	0.9765
RD-ES, 0.00457 µM	0.965
RD-ES, 0.01372 µM	0.976
RD-ES, 0.04115 µM	0.954
RD-ES, 0.1235 µM	0.955
RD-ES, 0.3704 µM	0.896
RD-ES, 1.111 µM	0.818
RD-ES, 3.333 µM	0.84
RD-ES, 10 µM	0.797
SK-ES-1, 0.00017 µM	1.06
SK-ES-1, 0.00051 µM	1.05
SK-ES-1, 0.00152 µM	1.01
SK-ES-1, 0.00457 µM	1.01
SK-ES-1, 0.01372 µM	0.978
SK-ES-1, 0.04115 µM	0.953
SK-ES-1, 0.1235 µM	0.914
SK-ES-1, 0.3704 µM	0.781
SK-ES-1, 1.111 µM	0.575
SK-ES-1, 3.333 µM	0.516
SK-ES-1, 10 µM	0.332
SW684, 0.00017 µM	1.12
SW684, 0.00051 µM	1.15
SW684, 0.00152 µM	1.09
SW684, 0.00457 µM	1.13
SW684, 0.01372 µM	1.12
SW684, 0.04115 µM	1.13
SW684, 0.1235 µM	1.1
SW684, 0.3704 µM	1.02
SW684, 1.111 µM	0.795
SW684, 3.333 µM	0.82
SW684, 10 µM	0.646
SW872, 0.00017 µM	1.07
SW872, 0.00051 µM	1.06
SW872, 0.00152 µM	1.07
SW872, 0.00457 µM	1.025
SW872, 0.01372 µM	1.03
SW872, 0.04115 µM	1.06
SW872, 0.1235 µM	0.973
SW872, 0.3704 µM	0.972
SW872, 1.111 µM	0.765
SW872, 3.333 µM	0.733
SW872, 10 µM	0.654
SW982, 0.00017 µM	0.986
SW982, 0.00051 µM	1.02
SW982, 0.00152 µM	1.025
SW982, 0.00457 µM	1.02
SW982, 0.01372 µM	0.983
SW982, 0.04115 µM	1
SW982, 0.1235 µM	0.987
SW982, 0.3704 µM	0.841
SW982, 1.111 µM	0.604
SW982, 3.333 µM	0.548
SW982, 10 µM	0.436
SW1353, 0.00017 µM	1.1
SW1353, 0.00051 µM	1.05
SW1353, 0.00152 µM	1.07
SW1353, 0.00457 µM	1.07
SW1353, 0.01372 µM	1.06
SW1353, 0.04115 µM	1.04
SW1353, 0.1235 µM	1.03
SW1353, 0.3704 µM	0.963
SW1353, 1.111 µM	0.7816
SW1353, 3.333 µM	0.739
SW1353, 10 µM	0.511
SYO-1, 0.00017 µM	1.02
SYO-1, 0.00051 µM	1.02
SYO-1, 0.00152 µM	1.01
SYO-1, 0.00457 µM	1.02
SYO-1, 0.01372 µM	0.985
SYO-1, 0.04115 µM	1.01
SYO-1, 0.1235 µM	0.933
SYO-1, 0.3704 µM	0.809
SYO-1, 1.111 µM	0.643
SYO-1, 3.333 µM	0.503
SYO-1, 10 µM	0.289
